{
  "source": "patent US20230192607A1",
  "about": "“TRANSCRIPTIONAL ENHANCED ASSOCIATE DOMAIN (TEAD) TRANSCRIPTION FACTOR INHIBITORS AND USES THEREOF” (Dana-Farber Cancer Institute, Inc., priority 2019, published 2023)",
  "key": {"[1]": {"system": "YAP activity in PC-9 YAP reporter cells", "assay": "Fluorescent YAP/Hippo pathway reporter assay (Incucyte live-cell imaging)", "type": "cell-based, human", "details": "for YAP activity (reporter) induced by osimertinib/trametinib: compound added to osimertinib/trametinib", "procedure": "YAP activity -induced mCherry expression was quantified using the Incucyte ZOOM live-cell analysis system. The mCherry signal was normalized to well confluency at each time point. For simultaneous detection of YAP activity and apoptosis, the cells were plated as above, and treated in the presence of CellEvent™ Caspase-3/7 Green ReadyProbes™ Reagent (Molecular Probes) as per manufacturer’s instructions. The mCherry signal as well as the green fluorescence signal was quantified every 2 hours using Incucyte ZOOM."}, "PC-9 cells": {"system": "PC-9 cells", "assay": "Long-term cell growth assay (well confluency, Incucyte)", "details": "continuous treatment with single-agent osimertinib (100 nM)"}, "[2]": {"system": "PC-9, HCC827 and HCC4006 cells", "procedure": "PC-9, HCC827 and HCC4006 were plated into 6-well plates at 50 000 cells / well, and treated the next day with DMSO, 100 nM osimertinib or with the combination of 100 nM osimertinib and 30 nM trametinib in triplicate. […] After staining, cells were imaged (5 images / well), and stained cells were manually counted from the images."}, "TEAD2 protein": {"biological_target": "TEAD2 protein (Homo sapiens, UniProt Q15562)", "sequence (Q15562 whole entry)": "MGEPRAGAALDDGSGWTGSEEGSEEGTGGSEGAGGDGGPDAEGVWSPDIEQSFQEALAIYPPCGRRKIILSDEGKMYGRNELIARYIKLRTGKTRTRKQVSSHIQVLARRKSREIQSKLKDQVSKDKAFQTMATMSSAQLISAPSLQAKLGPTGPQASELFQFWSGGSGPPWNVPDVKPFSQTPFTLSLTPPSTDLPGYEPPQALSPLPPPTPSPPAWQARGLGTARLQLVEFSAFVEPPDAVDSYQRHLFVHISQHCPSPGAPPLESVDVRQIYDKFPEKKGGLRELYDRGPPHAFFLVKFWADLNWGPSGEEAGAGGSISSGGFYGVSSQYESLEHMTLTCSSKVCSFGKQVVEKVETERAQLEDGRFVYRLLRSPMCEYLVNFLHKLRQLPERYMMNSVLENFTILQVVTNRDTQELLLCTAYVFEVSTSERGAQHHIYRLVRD", "assay": "Mass spectrometry analysis of covalent labeling of TEAD2 protein", "type": "binding", "details": "20-fold molar excess, 6 hours at 37° C.", "procedure": "TEAD2 protein was incubated with DMSO or a 20-fold molar excess of MYF-01-37 for 6 hours at 37° C. Reactions were then analyzed by LC-MS using a Shimadzu autosampler and LC (Marlborough, MA) coupled to an LTQ ion trap mass spectrometer (ThermoFisher Scientific, San Jose, CA). Protein was injected onto a self packed column (0.5 mm I.D., packed 5 cm POROS 50R2 from Applied Biosystems, Framingham, MA), desalted for 4 minutes with 100% A (A=0.2 M acetic acid in water), eluted with a gradient (0-100% B in 1 minute; A=0.2 M acetic acid in water, B=0.2 M acetic acid in acetonitrile), and introduced to the mass spectrometer by electrospray ionization (spray voltage=4.5 kV). The mass spectrometer acquired full scan MS data (m/z 300-2000). […]\nTo identify the site of modification, labeled protein was diluted 1:1 with 100 mM ammonium bicarbonate, reduced with 10 mM DTT at 56° C. for 30 minutes, alkylated with 22.5 mM IAA for 30 minutes at room temperature, and then digested with trypsin overnight at 37° C. Tryptic peptides were desalted by C18 (SOLA, ThermoFisher Scientific), dried by vacuum centrifugation, reconstituted in 5% MeCN, 0.1% trifluoroacetic acid, and analyzed by nanoLC-ion mobility MS/MS using a NanoAcquity UPLC system (Waters Corp., Milford, MA) interfaced to a timsTOF Pro mass spectrometer (Bruker, Billerica, MA). […]"}, "[3]": {"system": "EGFR-mutant NSCLC cell lines", "assay": "Regrowth after drug washout and count of viable dormant cells", "type": "cell-based, human", "procedure": "To determine number of dormant cells after treatment, viable cells were manually counted from the Incucyte images. A total of 10-12 wells with 3 images per well was analyzed for each condition."}, "BMF expression": {"system": "BMF expression", "assay": "QPCR analysis of BMF expression", "type": "cell-based, human", "details": "combined with osimertinib/trametinib, 24 hour treatment", "procedure": "Cells were plated at 15 × 10^4 cells / cm^2, treated the next day, and RNA samples were extracted at specified timepoints using the RNeasy Mini kit (Qiagen). The RNA concentrations were measured with Nanodrop (Thermo Fisher Scientific) and 1 µg of total RNA was used for cDNA synthesis using the QuantiTect Reverse Transcription Kit (Qiagen). The QPCR reactions were set up in 20 µl using Taqman Gene Expression Master Mix (Applied Biosystems, cat. 4369016), Taqman Gene Expression Assays (Applied Biosystems) as per manufacturer’s instructions, and 2 µl of 1:10 diluted cDNA. The following Taqman Gene Expression Assays were used in the study: CTGF (Hs01026927_ml), ANKDR1 (Hs00173317_ml), BMF (Hs00372937 _m1), SNAI1(Hs00195591_m1), SNAI2 (Hs00161904_m1), TWIST1 (Hs00361186_m1), TWIST2 (Hs02379973_s1), ZEB1 (Hs00232783_m1), ZEB2 (Hs00207691_m1), and ACTB (Hs01060665_g1). The reactions were run in StepOne Plus Real-time PCR System (Applied Biosystems) using default reaction settings. The gene expression levels were normalized to ACTB housekeeping gene expression levels in each sample. For the analysis of BMF expression in vivo, RNA was extracted from 25-30 mg snap-frozen tumor samples using RNeasy Mini kit according to the kit protocol. Reverse transcription and gene expression analyses were performed as above."}, "CTGF expression": {"system": "CTGF expression", "assay": "QPCR analysis of YAP target gene CTGF expression", "type": "cell-based, human", "details": "24 hour treatment; for CTGF expression in cells overexpressing TEAD1 C359S mutant: PC-9 cells transduced with TEAD1 C359S"}, "YAP/TEAD interaction": {"system": "YAP/TEAD interaction", "assay": "YAP/TEAD interaction assay (split Gaussia luciferase)", "type": "cell-based", "details": "HEK 293T cells", "procedure": "293T cells were plated in 24-well plates and transfected with N-GLuc-YAP and C-GLuc-TEAD using TransIT-293 (Mirus Bio). The pCMV-Red Firefly Luc Vector (Life Technologies) was used as an internal control. Cells were treated with indicated concentrations of compounds or vehicle control (DMSO) in duplicates. Luciferase activity was measured by Dual-Luciferase Assay (Promega, Madison, WI) according to the manufacturer’s manual."}, "EGFR-mutant NSCLC cells": {"system": "EGFR-mutant NSCLC cells", "assay": "Caspase-3/7 activity monitoring (apoptosis)", "type": "cell-based, human", "details": "combined with osimertinib/trametinib vs osimertinib/trametinib alone", "procedure": "Cells were plated into 96-well plates at 3000 cells/well in 100 µl of growth medium. The next day, drugs were added onto cells in 50 µl containing CellEvent™ Caspase-3/7 Green ReadyProbes™ Reagent (Molecular Probes) as per manufacturer’s instructions (n=5-6 wells / condition). The wells were subsequently scanned every 2 hours using the Incucyte ZOOM live cell analysis system (Essen Bioscience) typically for a total of 72 hours. The acquired fluorescent signal for activated caspase-3/7 was normalized with well confluency at each timepoint (=normalized apoptosis). Peak apoptosis was determined as the highest normalized caspase-3/7 activity value during the assay."}, "TEAD": {"system": "TEAD", "assay": "Competition pulldown with biotinylated MYF-01-37", "type": "cell-based", "details": "MDA-MB-231 cells pretreated 6 hours with 10, 25 and 50 µM", "procedure": "MDA-MB-231 cells were incubated for 6 hours with 10, 25 and 50 µM MYF-01-37, followed by cell lysis. The lysates were subjected to pulldown with 50 µM biotinylated MYF-01-37 overnight, and the amount of TEAD pulled down was analyzed by western blotting."}, "[4]": {"system": "EGFR-mutant NSCLC cell lines", "assay": "Cell viability assay (Cell Titer Glo)", "type": "cell-based, human", "details": "several EGFR-mutant NSCLC cell lines"}},
  "note": "“Also recorded” adds a separate entry of the source.",
  "data": [
    {"compound": "C=CC(=O)Nc1cc(Nc2nccc(-c3cn(C)c4ccccc34)n2)c(OC)cc1N(C)CCN(C)C", "note": "[osimertinib]", "values": [
      {"measurement": "proportion of YAP^high cells", "setting": "[1]; 10-day treatment", "value": 40, "unit": "%"},
      {"measurement": "proportion of cells with absent YAP signal", "setting": "[1]; 10-day treatment", "value": 60, "unit": "%"},
      {"measurement": "time to re-colonization of wells", "setting": "PC-9 cells", "value": "≤ 8", "unit": "weeks"},
      {"measurement": "cells positive for SA-β-Gal activity", "setting": "[2]", "value": "significantly smaller proportion"}
    ]},
    {"compound": "C=CC(=O)N1CCC(Nc2cccc(C(F)(F)F)c2C)C1", "note": "(centres unmarked) [MYF-01-37]", "values": [
      {"measurement": "site of covalent modification", "setting": "TEAD2 protein", "value": "targeted cysteine 380"},
      {"measurement": "YAP activity (reporter) induced by osimertinib/trametinib", "setting": "[1]", "value": "completely suppressed the increased YAP activity"},
      {"measurement": "dormant cells after treatment", "setting": "[3]; PC-9 and HCC4006 cells, 10-day treatment in combination with osimertinib/trametinib vs osimertinib/trametinib alone", "value": "dramatic decrease in dormant cells"},
      {"measurement": "regrowth after one week triple combination followed by two weeks osimertinib/trametinib vs three-week continuous triple combination", "setting": "[3]; PC-9 cells", "value": "identical potency"},
      {"measurement": "BMF expression", "setting": "BMF expression", "value": "robust increase in BMF expression"},
      {"measurement": "CTGF expression in cells overexpressing TEAD1 C359S mutant", "setting": "CTGF expression", "value": "abrogated"},
      {"measurement": "CTGF expression", "setting": "CTGF expression; PC-9 cells", "value": "reduction in canonical YAP target gene CTGF expression"},
      {"measurement": "YAP/TEAD interaction", "setting": "YAP/TEAD interaction", "value": "inhibition of direct YAP/TEAD interaction"},
      {"measurement": "apoptosis", "setting": "EGFR-mutant NSCLC cells", "value": "significantly increased apoptosis"},
      {"measurement": "TEAD pull-down by biotinylated MYF-01-37 from whole-cell lysate", "setting": "TEAD", "value": "loss of direct TEAD pull-down"},
      {"measurement": "cell viability as a single agent", "setting": "[4]", "value": "minimal impact on cell viability; also recorded: did not demonstrate single-agent toxicity"}
    ]},
    {"compound": "O=c1[nH]c(-c2ccc(C(F)(F)F)cc2)nc2c1CSCC2", "note": "[XAV939]", "values": [
      {"measurement": "YAP activity (reporter) induced by osimertinib/trametinib", "setting": "[1]", "value": "completely blocked"},
      {"measurement": "regrowth after one week triple combination followed by two weeks osimertinib/trametinib vs three-week continuous triple combination", "setting": "[3]; PC-9 cells", "value": "identical potency"},
      {"measurement": "number of dormant cells at the time of drug washout", "setting": "[3]; PC-9 cells, 21-day treatment combined with osimertinib/trametinib vs osimertinib/trametinib alone", "value": "dramatic decrease in the number of dormant cells"},
      {"measurement": "regrowth of cells after drug washout", "setting": "[3]; three-week treatment combined with osimertinib/trametinib, then washout", "value": "significant reduction in regrowth"},
      {"measurement": "BMF expression", "setting": "BMF expression", "value": "significantly increased BMF expression"},
      {"measurement": "CTGF expression in cells overexpressing TEAD1 C359S mutant", "setting": "CTGF expression", "value": "still able to inhibit CTGF expression"},
      {"measurement": "apoptosis", "setting": "EGFR-mutant NSCLC cells", "value": "robust increase in apoptosis"}
    ]},
    {"compound": "O=C(CCl)c1ccccc1Nc1cccc(C(F)(F)F)c1", "note": "[TED-347]", "values": [
      {"measurement": "cell viability as a single agent", "setting": "[4]", "value": "significant toxicity"}
    ]}
  ]
}
